Experimental data as given in US9371363B2, “Peptides and their use” (Novabiotics Limited, priority 2007, dated 2016).
Where two headings read alike, the source gives them in different places. Where no end group is shown, it is not given here.

Legend:
Assay type in all cases: cell-based
[1] = tested on: S. aureus
Method: (§1) Broth Dilution Antibacterial Susceptibility Testing
(§2) The sensitivity of relevant bacterial strains to the peptides (was determined using Clinical Laboratory Standard Institute (CLSI; formerly NCCLS) Approved Standards. Bacterial susceptibility was tested using “Methods for Dilution Antimicrobial Susceptibility Tests for Bacteria That Grow […]; Approved Standard—Seventh Edition M7-A7”

[2] = tested on: E. coli
Method: as §1, §2

[3] = tested on: P. acnes
Method: as §1, §2

[4] = tested on: Ps. aeruginosa; conditions: Ps. aeruginosa
Method: as §1, §2

[5] = tested on: Str. pyogenes
Method: as §1, §2

[6] = S. aureus, values marked * in mg/ml
[7] = P. acnes, values marked * in mg/ml

Compound | Minimum Inhibitory Concentration, antimicrobial activity, S. aureus [1] | Minimum Inhibitory Concentration, antimicrobial activity, E. coli [2] | Minimum Inhibitory Concentration, antimicrobial activity, P. acnes [3] | Minimum Inhibitory Concentration, antimicrobial activity, Ps. aeruginosa ([4]; CLSI broth dilution) | Minimum Inhibitory Concentration, antimicrobial activity, S. aureus [1, 6] | Minimum Inhibitory Concentration, antimicrobial activity, P. acnes [3, 7] | Minimum Inhibitory Concentration, antimicrobial activity, Ps. aeruginosa ([4]; values marked * in mg/ml) | Minimum Inhibitory Concentration, antimicrobial activity, Str. pyogenes [5]
N=C(N)NCCC[C@H](NC(=O)[C@H](CCCNC(=N)N)NC(=O)[C@H](CCCNC(=N)N)NC(=O)[C@H](CCCNC(=N)N)NC(=O)[C@H](CCCNC(=N)N)NC(=O)[C@H](CCCNC(=N)N)NC(=O)[C@@H](N)CCCNC(=N)N)C(=O)O [NP105, RRRRRRR (SEQ ID NO: 23)] | >2 mM | >2 mM |  |  |  |  |  | 
CC(=O)N[C@H](CCCNC(=N)N)C(=O)N[C@H](CCCNC(=N)N)C(=O)N[C@H](CCCNC(=N)N)C(=O)N[C@H](CCCNC(=N)N)C(=O)N[C@H](CCCNC(=N)N)C(=O)N[C@H](CCCNC(=N)N)C(=O)N[C@H](CCCNC(=N)N)C(=O)N[C@H](CCCNC(=N)N)C(=O)N[C@H](CCCNC(=N)N)C(=O)N[C@H](CCCNC(=N)N)C(=O)N[C@H](CCCNC(=N)N)C(=O)N[C@H](CCCNC(=N)N)C(=O)N[C@H](CCCNC(=N)N)C(N)=O [NP340, Ac-dRdRdRdRdRdRdRdRdRdRdRdRdR—NH2 (SEQ ID NO: 31)] | 0.25 mM |  | 0.02 mM | 0.125 mM |  |  |  | 
(K)n, n = 103-205 [NP101] |  |  |  |  | <0.0313* mg/ml | 0.1* mg/ml | 0.125* mg/ml | 
(R)n, n = 28-86 [NP121] |  |  |  |  | 0.0313* mg/ml | 0.01* mg/ml | 0.0625* mg/ml | 
KKKKKKK [NP104, KKKKKKK (SEQ ID NO: 35)] | >2 mM | >2 mM |  |  |  |  |  | 1 mM
